# In ChEMBL document CHEMBL1122566, “Resorcinol congeners of dopamine derived from benzocycloheptene and indan” (1984):
# Experiments:
# Felis catus [1] = test: Effect on rise in arterial pressure in anesthetized cats at intravenous dose of 1000 ug/kg; type: functional, Artery
# Felis catus [2] = test: Effect on increase in heart rate in anesthetized cats at intravenous dose of 300 ug/kg; type: functional
# Felis catus [3] = test: Effect on increase in heart rate in anesthetized cats at intravenous dose of 100 ug/kg; type: functional
# Felis catus [4] = test: Effect on rise in arterial pressure in anesthetized cats at intravenous dose of 100 ug/kg; type: functional, Artery
# Felis catus [5] = test: Effect on increase in heart rate in anesthetized cats at intravenous dose of 30 ug/kg; type: functional
# Felis catus [6] = test: Effect on rise in arterial pressure in anesthetized cats at intravenous dose of 30 ug/kg; type: functional, Artery
# Felis catus [7] = test: Effect on rise in arterial pressure in anesthetized cats at intravenous dose of 300 ug/kg; type: functional, Artery
Compound,Arterial pressure (Felis catus [1]) [mmHg],Heart rate (Felis catus [2]) [beats min-1],Heart rate (Felis catus [3]) [beats min-1],Arterial pressure (Felis catus [4]) [mmHg],Heart rate (Felis catus [5]) [beats min-1],Arterial pressure (Felis catus [6]) [mmHg],Arterial pressure (Felis catus [7]) [mmHg]
CCCN(CCC)C1Cc2cc(O)cc(O)c2C1 (centres undefined),22.8,21.7,0,10,–,–,–
NC1Cc2cc(O)cc(O)c2C1 (centres undefined),70.3,7.3,0,13.3,–,–,–
NC1CCCc2c(O)cc(O)cc2C1 (centres undefined),–,42,11.7,40,4.3,25.3,78.7
